As usually defined, the IC50 is the concentration needed to halve the response being measured. As a reminder, the pIC50 is the IC50 on a negative log10 scale, so that one unit is a factor of ten.

Where only a bound is given, the exact number is not on record here.

The target in the first test is T1, Recombinant His-tagged HIV-1 integrase (Human immunodeficiency virus type 1 group M subtype B, UniProt P12497, C1427S/F1332K).
T1 construct: Recombinant His-tagged HIV-1 integrase; His; made in house; host or cells: E. coli BL21(DE3)
The test can be described thus: Enzymatic integrase assay (oligonucleotide-based DNA strand transfer, ELISA).
Conditions: not given
It is filed as biochemical. As for the experimental part:
Enzymatic Integrase Assay
The activity of HIV-integrase was determined using an oligonucleotide-based assay in which the DNA strand transfer by preformed complexes of integrase and processed DNA was measured by means of an enzyme-linked immunosorbent assay (ELISA) in microtiter plate format. Recombinant His-tagged HIV-1 integrase was produced in the E. coli strain BL21(DE3) from the plasmid pINSD.His.sol (available from NTH) after induction with isopropyl-β-D-thiogalactopyranoside (IPTG) according to described procedures (cfr. ref. Jenkins et al., “A soluble active mutant of HIV-1 integrase”, J. Biol. Chem. 271 ([…]), 7712-7718). HPLC-purified oligodeoxynucleotides were obtained from Proligo, and used for preparation of the viral DNA substrate and target DNA.
INb-1C is 5′-biotinylated, INT5 and INT6 are at the 3′-end labeled with FITC. INb-1C and IN-1NC correspond to the U5 end of the HIV-1 LTR. The DNA substrate for the integrase reactions was made by annealing INb-1C and IN-1NC. An equimolar mixture of INb-1C and IN-1NC was heated shortly at 95° C. in the presence of 100 mM NaCl and allowed to cool slowly to room temperature. In the same way, INT5 and INT6 were annealed to produce a target DNA molecule.
The integration strand transfer reactions were performed in the following way:
20 nM biotinylated DNA substrate INb-1C/IN-1NC was pre-incubated with 300 nM HIV-integrase at 37° C. for 5 min, to allow the cleavage reaction to occur. The candidate compounds and 50 nM target DNA INT5/INT6 were added to the reaction mix containing 20 mM Hepes pH 7.5, 25 mM NaCl, 5 mM MnCl2, 2 mM DTT, and 50 μg/ml BSA, and incubated for 2 h at 37° C. The reaction mix was transferred to streptavidin-coated plates (Exiqon), which were prewashed (three times) with 5×SSCT, and incubated for 1 h at room temperature to allow capture of the biotinylated viral DNA/target DNA complex. Plates were washed three times with 2×SSCT buffer, and anti-FITC POD-coupled antibody (Roche) was added and incubated for 1 h at room temperature to detect integrated FITC-labeled target DNA. After a final washing step with PBST (5 times), BM chemiluminescent POD-substrate (Roche) was added, and luminescence was read out.
The table below list the pIC50 values for those compounds tested in the enzymatic integrase assay. The pIC50 is expressed in Molar units and is the value according to the following formula: pIC50=−log IC50
wherein the IC50 value is the drug concentration at which 50% of the enzyme or viral activity is inhibited.
(In general: ELISA stands for enzyme-linked immunosorbent assay.)
Turning to `O=C1c2c(c(O)c3nccnc3c2O)C(=O)N1Cc1ccc(Oc2ccccc2)cc1` [Compound 7, 5,9-Dihydroxy-7-(4-phenoxy-benzyl)-pyrrolo[3,4-g]quinoxaline-6,8-dione], the IC50 was 4900 nM.
As to `O=C1c2c(c(O)c3nccnc3c2O)C(=O)N1c1ccc2c(c1)OCO2` [Compound 10, 7-Benzo[1,3]dioxol-5-yl-5,9-dihydroxy-pyrrolo[3,4-g]quinoxaline-6,8-dione], the half-maximal inhibitory concentration (IC50) was 10000 nM.
Same read-out and setting: under `O=C1c2c(c(O)c3ncccc3c2O)C(=O)N1CCc1ccccc1` [Compound 24, 5,9-Dihydroxy-7-phenethyl-pyrrolo[3,4-g]quinoline-6,8-dione] stands 2510 nM.
The same measure, in the same setting: for `Cc1ccc2c(O)c3c(c(O)c2n1)C(=O)N(CCc1ccccc1)C3=O` [Compound 19, 5,9-Dihydroxy-2-methyl-7-phenethyl-pyrrolo[3,4-g]quinoline-6,8-dione] the value was 4170 nM; for `C[C@H](c1ccccc1)N1C(=O)c2c(c(O)c3nccnc3c2O)C1=O` [Compound 15, 5,9-Dihydroxy-7-(1-(R)-phenyl-ethyl)-pyrrolo[3,4-g]quinoxaline-6,8-dione], 1050 nM.
Still for that read-out and setting: for `O=C1c2c(c(O)c3ccccc3c2O)C(=O)N1CCc1ccccc1` [Compound 12, 4,9-Dihydroxy-2-phenethyl-benzo[f]isoindole-1,3-dione] the value was above 100000 nM.
Consider `CS(=O)(=O)c1ccc(CN2C(=O)c3c(c(O)c4nccnc4c3O)C2=O)cc1` [Compound 34, 5,9-Dihydroxy-7-(4-methanesulfonyl-benzyl)-pyrrolo[3,4-g]quinoxaline-6,8-dione], for which the IC50 is 8710 nM.
On the same count and under the same terms, under `O=C1c2c(c(O)c3nccnc3c2O)C(=O)N1CCN1CCOCC1` [Compound 28, 5,9-Dihydroxy-7-(2-morpholine-4-yl-ethyl)-pyrrolo[3,4-g]quinoxaline-6,8-dione] stands 66100 nM.
Still for that read-out and setting: under `Cc1ccc2c(O)c3c(c(O)c2n1)C(=O)N(Cc1cccc(F)c1)C3=O` [Compound 21, 7-(3-Fluoro-benzyl)-5,9-dihydroxy-2-methyl-pyrrolo[3,4-g]quinoline-6,8-dione] stands 871 nM; under `COc1ccc(CN2C(=O)c3c(c(O)c4nccnc4c3O)C2=O)cc1` [Compound 17, 5,9-Dihydroxy-7-(4-methoxy-benzyl)-pyrrolo[3,4-g]quinoxaline-6,8-dione], 562 nM; under `O=C1c2c(c(O)c3nccnc3c2O)C(=O)N1C1CCCC1` [Compound 32, 7-Cyclopentyl-5,9-dihydroxy-pyrrolo[3,4-g]quinoxaline-6,8-dione], 10500 nM.
As for `O=C1c2c(c(O)c3nccnc3c2O)C(=O)N1Cc1ccc(Br)cc1` [Compound 4, 7-(4-Bromo-benzyl)-5,9-dihydroxy-pyrrolo[3,4-g]quinoxaline-6,8-dione], the IC50 is 219 nM.
Turning to `O=C1c2c(c(O)c3nccnc3c2O)C(=O)N1CCc1ccccc1` [Compound 14, 5,9-Dihydroxy-7-phenethyl-pyrrolo[3,4-g]quinoxaline-6,8-dione], the IC50 was 2040 nM.
The same measure, in the same setting: for `Cc1ccc2c(O)c3c(c(O)c2n1)C(=O)N(c1ccccc1)C3=O` [Compound 30, 5,9-Dihydroxy-2-methyl-7-phenyl-pyrrolo[3,4-g]quinoline-6,8-dione] the value was 24000 nM; for `O=C1c2c(c(O)c3nccnc3c2O)C(=O)N1Cc1cccc2ccccc12` [Compound 27, 5,9-Dihydroxy-7-naphthalen-1-ylmethyl-pyrrolo[3,4-g]quinoxaline-6,8-dione], 1410 nM; for `O=C1c2c(c(O)c3nccnc3c2O)C(=O)N1Cc1ccncc1` [Compound 29, 5,9-Dihydroxy-7-pyridin-4-ylmethyl-pyrrolo[3,4-g]quinoxaline-6,8-dione], 6760 nM.
Still for that read-out and setting: for `O=C1c2c(c(O)c3nccnc3c2O)C(=O)N1c1ccc(F)cc1` [Compound 33, 7-(4-Fluoro-phenyl)-5,9-dihydroxy-pyrrolo[3,4-g]quinoxaline-6,8-dione] the value was 21900 nM; for `Cc1ccc2c(O)c3c(c(O)c2n1)C(=O)N(Cc1ccc(F)cc1)C3=O` [Compound 22, 7-(4-Fluoro-benzyl)-5,9-dihydroxy-2-methyl-pyrrolo[3,4-g]quinoline-6,8-dione], 398 nM; for `O=C1c2c(c(O)c3nccnc3c2O)C(=O)N1Cc1cccc(F)c1` [Compound 16, 7-(3-Fluoro-benzyl)-5,9-dihydroxy-pyrrolo[3,4-g]quinoxaline-6,8-dione], 562 nM.
Consider `Cc1ccc2c(O)c3c(c(O)c2n1)C(=O)N(Cc1ccc2c(c1)OCO2)C3=O` [Compound 20, 7-Benzo[1,3]dioxol-5-ylmethyl-5,9-dihydroxy-2-methyl-pyrrolo[3,4-g]quinoline-6,8-dione], for which the IC50 is 2140 nM.
The same measure, in the same setting: under `CC(c1ccccc1)N1C(=O)c2c(c(O)c3c(ncn3Cc3ccccc3)c2O)C1=O` (stereo not shown) [Compound 40, 1-Benzyl-4,8-dihydroxy-6-(1-phenyl-ethyl)-1H-1,3,6-triaza-s-indacene-5,7-dione] stands 1120 nM; under `Cc1ccc(CN2C(=O)c3c(c(O)c4nccnc4c3O)C2=O)cc1` [Compound 3, 5,9-Dihydroxy-7-(4-methyl-benzyl)-pyrrolo[3,4-g]quinoxaline-6,8-dione], 1580 nM.
Still for that read-out and setting: for `O=C1c2c(c(O)c3c(ncn3Cc3ccccc3)c2O)C(=O)N1Cc1ccc2c(c1)OCO2` [Compound 38, 6-Benzo[1,3]dioxol-5-ylmethyl-1-benzyl-4,8-dihydroxy-1H-1,3,6-triaza-s-indacene-5,7-dione] the value was 479 nM; for `COc1ccc(CN2C(=O)c3c(c(O)c4nc(C)ccc4c3O)C2=O)cc1` [Compound 23, 5,9-Dihydroxy-7-(4-methoxy-benzyl)-2-methyl-pyrrolo[3,4-g]quinoline-6,8-dione], 1480 nM; for `O=C1c2c(c(O)c3ncccc3c2O)C(=O)N1Cc1ccc2c(c1)OCO2` [Compound 5, 7-Benzo[1,3]dioxol-5-ylmethyl-5,9-dihydroxy-pyrrolo[3,4-g]quinoline-6,8-dione], 5620 nM.
The same measure, in the same setting: under `CC(c1ccccc1)N1C(=O)c2c(c(O)c3nccnc3c2O)C1=O` (stereo not shown) [Compound 25, 5,9-Dihydroxy-7-(1-phenyl-ethyl)-pyrrolo[3,4-g]quinoxaline-6,8-dione] stands 2040 nM.
With `O=C1c2c(c(O)c3nccnc3c2O)C(=O)N1CC1CCCCC1` [Compound 26, 7-Cyclohexylmethyl-5,9-Dihydroxy-pyrrolo[3,4-g]quinoxaline-6,8-dione], the IC50 is 2190 nM.
Consider `Cc1ccc2c(O)c3c(c(O)c2n1)C(=O)N(C(C)c1ccccc1)C3=O` (stereo not shown) [Compound 8, 5,9-Dihydroxy-2-methyl-7-(1-phenyl-ethyl)-pyrrolo[3,4-g]quinoline-6,8-dione], for which the IC50 was 10700 nM.
Still for that read-out and setting: under `C#CCOc1c2c(c(O)c3nccnc13)C(=O)N(Cc1ccc3c(c1)OCO3)C2=O` [Compound 36, 7-Benzo[1,3]dioxol-5-ylmethyl-5-hydroxy-9-prop-2-ynyloxy-pyrrolo[3,4-g]quinoxaline-6,8-dione] stands 18200 nM; under `CC(C)CCOc1c2c(c(O)c3nccnc13)C(=O)N(Cc1ccc3c(c1)OCO3)C2=O` [Compound 37, 7-Benzo[1,3]dioxol-5-ylmethyl-5-hydroxy-9-(3-methyl-butoxy)-pyrrolo[3,4-g]quinoxaline-6,8-dione], 1480 nM; under `O=C1c2c(c(O)c3c(F)cccc3c2O)C(=O)N1Cc1ccc(F)cc1` [Compound 13, 5-Fluoro-2-(4-fluoro-benzyl)-4,9-dihydroxy-benzo[f]isoindole-1,3-dione], above 100000 nM.
The same measure, in the same setting: for `O=C1c2c(c(O)c3nccnc3c2O)C(=O)N1c1ccccc1Br` [Compound 35, 7-(2-Bromo-phenyl)-5,9-dihydroxy-pyrrolo[3,4-g]quinoxaline-6,8-dione] the value was 1820 nM; for `O=C1c2c(c(O)c3ccccc3c2O)C(=O)N1Cc1ccc(F)cc1` [Compound 11, 2-(4-Fluoro-benzyl)-4,9-dihydroxy-benzo[f]isoindole-1,3-dione], above 100000 nM.

The test is the same for the next values; noted with them: pIC50=−log IC50, expressed in Molar units; strand transfer, 5 mM MnCl2, 2 h at 37° C.
Regarding `CCOC(=O)C(=O)Oc1c2c(c(O)c3nccnc13)CN(Cc1ccc3c(c1)OCO3)C2` [Compound 6, Oxalic acid 7-benzo[1,3]dioxol-5-ylmethyl-9-hydroxy-6,8-dihydro-6H-pyrrolo[3,4-g]quinoxalin-5-yl ester ethyl ester], the pIC50 stood at 5.50.

The values are drawn from patent US20060211724A1, “Hiv integrase inhibitors” (priority 2003, published 2006).
